Measurements reported in publication PMC3970309 (Infection & Chemotherapy, 2014).

Assay type: in vivo, human
Details: percent; CLCr > 60 mg/dL (normal renal function), n = 22

Patients with plasma teicoplanin >10mg/L: 63%
Substance: teicoplanin
